Test results: patent publication US20240331158A1, “CELL PAINTING AND ANALYSIS IN 3D CELLULAR MODELS” (priority 2023, published 2024)
Structures can show the parent of a compound that is named as a salt. Where two headings read alike, the source gives them in different places.

Columns and labels:
TU-BcX-4IC 3D cultures [1] = experiment: Imaging read-out, 3D culture; settings: Homo sapiens, 120 h, read-out: EC50, Imaging 3D
Description: (§1) Cell metabolism may be measured by ATP level as another readout for effects of anti-cancer drugs that is related to cytotoxicity. In the present examples, a subset of 12 compounds were used for evaluation of compound effects, using the CellTiter-Glo 3D assay (Promega), which detects ATP levels. Compounds may be tested using 7 point 5× dilutions starting from 100 uM. In the present examples, compound effects on 2D culture and 3D cultures were compared, using imaging and CellTiter-Glo 3D methods. Cultures were set up in parallel, using same cell number (2000). Cultures were allowed to grow for 48 hours, then treated with compounds for 5 days.
(§2) Images were analyzed using MetaXpress Software (Molecular Devices). Count Nuclei or Cell Scoring application modules were used for nuclear count live/dead assessment, or evaluation of cell number positive for specific markers. Output measurements included spheroid width, spheroid area, average intensity for calcein AM or EthD-III, counts of all nuclei, and evaluation of average nuclear size and average intensities. In addition, calcein AM-positive cells were counted, and their area and intensity values were recorded. In addition to cell count, areas and intensities could be determined for live (EthD-III negative) and dead (EthD-III positive) cells.

TU-BcX-4IC tumoroids [2] = experiment: Cell Painting assay adapted for 3D tumoroids, phenotypic distance score and cluster analysis; settings: 10 μM, phenotypic distance relative to DMSO controls
Description: For phenotypic profiling, the tumoroids were treated with a single 10 μM concentration of compound, using the methods described above. Notable changes in the staining protocol included increased times for dye incubation, fixation, and permeabilization. […] Images were acquired with Z-stacks using 20× magnification, and the analysis was carried out on projection (maximum) images.
Unlike the previous analysis that included cell count or live-dead evaluation, multiple read-outs may be collected from the whole spheroid to form their phenotypic profile. […] Instead, the spheroid images may also acquired in transmitted light (bright field), and these images may be used to identify the spheroid structures using a deep learning-based image segmentation approach which may improve the analysis. Features extracted from each spheroid may include object morphologies, intensities, and texture measurements for, e.g., the six cell stains and bright field images.
To determine hits from the assay, a phenotypic distance score may be calculated based on the PCA (principal component analysis) components.
This score is a measure of the phenotypic effect of the compounds on the tumoroids relative to the controls. All hits may then be clustered based on their phenotypic profiles using the normalized principal component scores.
To image the organoids labeled with the cell painting dyes, the ImageXpress Confocal HT.ai system, equipped with a laser light source, was used for image acquisition. The confocal mode (pinhole size 60 μm) was used to image organoids with a 20× Plan Apo Lambda, NA 0.75 objective, with z-stacking enabled (5p m step size). The maximum projection image was selected in the acquisition setup.
Images were analyzed using MetaXpress Software (Molecular Devices). […] For the Cell Painting analysis, image analysis was done in the IN Carta image analysis software. To segment the organoids, a deep learning-based model was created based on the TL channel to segment individual organoids. Following segmentation, measurements that include intensity, shape, area, and texture were extracted from all 6 fluorescent channels. In total, 210 analytical features were obtained from each organoid.
The plate was first incubated with MitoTracker DeepRed (500 nM) for 2 hours. The samples were fixed with 4% paraformaldehyde (PFA) in HBSS for 60 minutes. All wash steps were carried out by exchanging half the volume in each well with HBSS to minimize displacement of the organoids from the center of the well.
Measurements from IN Carta were exported as a CSV file and uploaded into StratoMineR (Core Life Analytica), a web-based data analytics platform for hit picking and phenotypic clustering.

TU-BcX-4IC 2D culture [3] = experiment: Imaging read-out, 2D culture; settings: Homo sapiens, 120 h, read-out: EC50, Imaging 2D
Description: as §1, §2

TU-BcX-4IC 2D culture [4] = experiment: CellTiter-Glo 3D ATP assay, 2D culture; settings: for EC50: Homo sapiens, TU-BcX-4IC, 120 h, read-out: EC50, ATP 2D
Description: (§3) Cell metabolism may be measured by ATP level as another readout for effects of anti-cancer drugs that is related to cytotoxicity. […] Compounds may be tested using 7 point 5× dilutions starting from 100 uM. In the present examples, compound effects on 2D culture and 3D cultures were compared, using imaging and CellTiter-Glo 3D methods. Cultures were set up in parallel, using same cell number (2000). Cultures were allowed to grow for 48 hours, then treated with compounds for 5 days.

TU-BcX-4IC tumoroids [5] = experiment: Library screening of NCI approved anti-cancer drugs: tumoroid integrity/disintegration by nuclear count in projection images (viability/spheroid disintegration assay); settings: for minimal effective concentration: Homo sapiens, TU-BcX-4IC, 120 h, read-out: Effective concentration, 3D tumoroids, 5 days treatment, tumoroid integrity by nuclear count, tested at 10 nM to 100 uM; for Viability HIT?: also hit in viability/spheroid disintegration assay, 10 μM
Description: In addition, positive and negative controls were included in the test plates.
During incubation with compounds, tumoroids were monitored daily using TL imaging. Image analysis allowed characterization of tumoroid size, diameter, compactness, and integrity, as well as optical density (FIG. 2B, FIG. 7). Images of tumoroids were taken prior to compound treatment, and during day 3 and day 5 of compound treatment. For the end point assay, tumoroids were stained with viability and nuclear dyes on day 5 of compound treatment. Cells were stained with a combination of Hoechst, calcein AM, and Ethidium Homodimer III (EthD-III) and analyzed using high content imaging for complex phenotypic analysis; a subset of plates was set aside for additional assays including Cell Painting.
Images of organoids were taken with a 10× objective using Z-stack with a step size of 8 mm. Nuclei, live cells, and dead cells of stained cells were detected using DAPI, FITC, and TexasRed channels respectively. Maximum projection images were created from Z-stacks and analyzed as described in Methods. Multiple read-outs were generated characterizing spheroid area, diameter, intensities, and cell viability. In addition, cells inside each spheroid were counted using a nuclear stain. […] Suspended cells were plated into U-shape 384 well plates using a Biomek i7 automated liquid handler, incubated for 48 hours, and then treated with compounds, stained, and imaged. The protocols for compound additions, media, and staining included gentle media dispensing processes. Consecutively, tumoroids were cultured and monitored by automated imaging. Additionally, use of a collaborative robot enabled moving plates from the incubator to the imaging system, where transmitted light imaging or fluorescent imaging protocols were initiated.
For screening the compound library, maximum projection images may be employed. Spheroid disintegration is visible as an increase of spheroid size, in contrast to nicely shaped, round images of intact spheroids. Tumoroid disintegration can be described by several measurements: for example, increase in organoid area/diameter. Most accurate measurements may be done by counting cells or nuclei inside organoids using maximum projection images. […] Disintegrated tumoroids are made up of cells which are not held together in a tight aggregate but instead are loosely piled up in the well bottom resulting in 1) an increased projected area and 2) an increase in nuclear count in the projection images.
Simple nuclei count analysis in projection images was used as a reliable surrogate marker for organoid integrity/dis-integration.

TU-BcX-4IC 3D cultures [6] = experiment: CellTiter-Glo 3D ATP assay, 3D culture; settings: for EC50: Homo sapiens, TU-BcX-4IC, 120 h, read-out: EC50, ATP 3D
Description: as §3

TU-BcX-4IC tumoroids [7] = experiment: Label-free transmitted light imaging of tumoroids, deep learning segmentation (IN Carta); assay type: cell-based, human; settings: 10 uM, 5 days, no staining, 10× objective
Description: Images were analyzed using SYNAP module of InCartasoftware (Molecular Devices). Analysis mask shown in yellow.
A deep learning-based segmentation (IN Carta Image Analysis Software) approach was used to find all tumoroid objects in transmitted light, either intact or affected. Following segmentation and data extraction, a machine learning tool was utilized to classify all tumoroids into intact, intermediate or severely affected categories. Affected tumoroids were flagged by increase in the object areas (criteria were set as AVERAGE 2*STDEV from the DMSO-treated), allowing detection of effective compounds (FIG. 7, Table 6). An advantage of this method is that compound effects could be interrogated in a label-free manner during multiple time points. However, the analysis allowed some ambiguity in determining accurate areas of the objects, especially when the phenotypic changes were weak or moderate (FIG. 7). The endpoint fluorescent imaging and analysis enabled more robust measurements and compound selection (Tables 5 and 6).
Transmitted light (TL) and fluorescent (FL) images were acquired on the ImageXpress Confocal HT.ai High-Content Imaging System (Molecular Devices) and images analyzed using MetaXpress High-Content Image Analysis Software. Tumoroid images were acquired in TL with approximately 60 μm offset. Zstack images were acquired with the 10× objectives using confocal mode. Best focus projection images were used for TL analysis, and maximum projection images were used for FL analysis. MetaXpress Software or IN Carta Image Analysis Software was used for analysis.

TU-BcX-4IC tumoroids [8] = experiment: Secondary follow-up 3D assay, 7-point concentration curves, tumoroid disintegration measurement; assay type: cell-based, human; settings: Homo sapiens, TU-BcX-4IC, 120 h
Description: 10 compounds, including panobinostat, carfilzomib, and bortezomib were tested across 7 concentrations in the 1-10000 nM range. Spheroids were treated for 5 days with these compounds, then stained as described above (FIG. 4). […] EC50 values (Table 2) were determined using tumoroid disintegration measurement (nuclear count in projection images).
Automated staining of spheroids was performed for one hour. After staining, dye solution was replaced with 1×PBS.

[9] = 3D assay, 7-point concentration curves, 5 days, nuclear count in projection images, read-out: EC50

| SMILES | EC50 (TU-BcX-4IC 3D cultures [1]) [nM] | Distance Score (TU-BcX-4IC tumoroids [2]) | EC50 (TU-BcX-4IC 2D culture [3]) [nM] | minimal effective concentration (TU-BcX-4IC tumoroids [5]) [µM] | Viability HIT? (TU-BcX-4IC tumoroids [5]) | Tumoroids effected by compound in transmitted light images (TU-BcX-4IC tumoroids [7]) | EC50 (TU-BcX-4IC 2D culture [4]) [nM] | EC50 (TU-BcX-4IC 3D cultures [6]) [nM] | EC50 (TU-BcX-4IC tumoroids [8]; [9]) [nM] | further results |
| --- | --- | --- | --- | --- | --- | --- | --- | --- | --- | --- |
| CO[C@H]1C[C@@H]2CC[C@@H](C)[C@@](O)(O2)C(=O)C(=O)N2CCCC[C@H]2C(=O)O[C@H]([C@H](C)C[C@@H]2CC[C@@H](OC(=O)C(C)(CO)CO)[C@H](OC)C2)CC(=O)[C@H](C)/C=C(\C)[C@@H](O)[C@@H](OC)C(=O)[C@H](C)C[C@H](C)/C=C/C=C/C=C/1C [Temsirolimus] | 8520 | 5.699 | 10000 | 1 | no |  |  |  |  | EC50, ATP 2D (TU-BcX-4IC 2D culture [4]; 2D culture, 2000 cells, 5 days treatment, CellTiter-Glo 3D): no fit; EC50, ATP 3D (TU-BcX-4IC 3D cultures [6]; 3D culture, 2000 cells, 5 days treatment, CellTiter-Glo 3D): no fit |
| COc1cc(OC)cc(N(CCNC(C)C)c2ccc3ncc(-c4cnn(C)c4)nc3c2)c1 [erdafitinib] |  |  |  |  |  | effected by compounds |  |  |  |  |
| C/C=C1\NC(=O)[C@H]2CSSCC/C=C/[C@H](CC(=O)N[C@H](C(C)C)C(=O)N2)OC(=O)[C@H](C(C)C)NC1=O [Romidepsin] | < 10 |  | ~10 |  |  |  | ~10 | ~10 |  | EC50 (TU-BcX-4IC tumoroids [8]): 36 nM |
| O=C1c2c(O)ccc(O)c2C(=O)c2c(NCCNCCO)ccc(NCCNCCO)c21 [Mitoxantrone] |  | 6.688 |  |  | yes | effected by compounds |  |  |  |  |
| Cc1[nH]c2ccccc2c1CCNCc1ccc(/C=C/C(=O)NO)cc1 [Panobinostat] | 141 |  | 6 |  |  |  | 46 | 84 | 54 |  |
| COc1c(OCCCN2CCOCC2)ccc2c1N=C(NC(=O)c1cnc(N)nc1)N1CCN=C21 [Copanlisib tris-HCl] |  | 5.147 |  | 0.1 | yes | effected by compounds |  |  | 28 |  |
| COc1cccc2c1C(=O)c1c(O)c3c(c(O)c1C2=O)C[C@@](O)(C(=O)CO)C[C@@H]3O[C@H]1C[C@H](N)[C@H](O)[C@H](C)O1 [doxorubicin] |  |  |  |  |  | effected by compounds |  |  |  | Nuclear count in projection images (qualitative) (TU-BcX-4IC tumoroids [5]; 3D tumoroids, 5 days): decrease in counted nuclei |
| CC(C)C[C@H](NC(=O)[C@H](Cc1ccccc1)NC(=O)c1cnccn1)B(O)O [Bortezomib] | 70 |  | 10 | 0.01 |  |  | 10 | 15 | 17 | Efficacy at low concentrations (TU-BcX-4IC tumoroids [5]; library screen, tumoroid integrity by nuclear count): efficacy at low concentrations |
| CC(=O)Nc1cccc(-n2c(=O)n(C3CC3)c(=O)c3c(Nc4ccc(I)cc4F)n(C)c(=O)c(C)c32)c1 [Trametinib] | 8820 |  | 6270 |  |  |  | 7330 | 2620 | 70 |  |
| CC(=O)[C@]1(O)Cc2c(O)c3c(c(O)c2[C@@H](O[C@H]2C[C@H](N)[C@H](O)[C@H](C)O2)C1)C(=O)c1ccccc1C3=O [Idarubicin hydrochloride] | 3930 |  | ~1000 | 1 |  |  | 67 | 145 |  |  |
| CC(C)C[C@H](NC(=O)[C@H](CCc1ccccc1)NC(=O)CN1CCOCC1)C(=O)N[C@@H](Cc1ccccc1)C(=O)N[C@@H](CC(C)C)C(=O)[C@@]1(C)CO1 [Carfilzomib] | 73 | 5.007 | 1050 |  | no |  | 1040 | 5820 |  |  |
